Data on 15 compounds can be found in PubChem BioAssay (NCI).

Among the test systems are MCF7 breast; OVCAR-3 ovarian; SR leukemia; DU-145 prostate; COLO 205 colon; TK-10 renal; SF-295 CNS; SF-539 CNS.
Common to all, as to test: NCI tumour cell line growth inhibition, 48 h

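48-hour exposure; five concentrations; linearly interpolated endpoints. Abbreviation: GI50, concentration required for 50% inhibition of growth. TGI: total growth inhibition.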

Turning to `CCOC(=O)c1c(-c2ccc(OC)cc2)c(C#N)c2c(C#N)c(N)nn2c1N`, the GI50 in the assay with MCF7 breast was 3.31 µM; in the assay with OVCAR-3 ovarian, 3.28 µM; with SR leukemia, 2.05 µM; in the assay on DU-145 prostate it was 4.93 µM; with COLO 205 colon, 2.8 µM; with TK-10 renal, 16.4 µM. The GI50 was 2.98 µM with SF-295 CNS and 2.39 µM in the assay with SF-539 CNS. In addition, the TGI is over 100 µM in the assay on MCF7 breast; 14.2 µM in the assay with OVCAR-3 ovarian; over 100 µM in the assay on SR leukemia; over 100 µM in the assay with DU-145 prostate; 9.98 µM in the assay with COLO 205 colon; 69.2 µM in the assay with TK-10 renal. For the same compound, the TGI with SF-295 CNS worked out at 32.9 µM; in the assay with SF-539 CNS, 8.6 µM.

Regarding `O=C(CNS(=O)(=O)Cc1ccccc1)NNc1ccccc1`, the TGI in the assay on MCF7 breast was over 100 µM; with OVCAR-3 ovarian, over 100 µM; in the assay on SR leukemia, over 100 µM; with DU-145 prostate, over 100 µM; in the assay on COLO 205 colon it was 12.4 µM; in the assay on TK-10 renal, over 100 µM. Besides, the TGI is over 100 µM with SF-295 CNS and over 25.6 µM in the assay with SF-539 CNS.

Take `C[C@@]12CCC[C@@](C)(C(=O)O)C1CC[C@]13CC(=O)[C@](CO)(C1)[C@@H](O)CC32` (stereo partly drawn): the GI50 in the assay on MCF7 breast, with OVCAR-3 ovarian, in the assay with SR leukemia, in the assay with DU-145 prostate, in the assay with COLO 205 colon and in the assay with TK-10 renal was over 100 µM in each case. The GI50 with SF-295 CNS and in the assay with SF-539 CNS was over 100 µM in each case. Also, the TGI in the assay on MCF7 breast, in the assay with OVCAR-3 ovarian, with SR leukemia, in the assay with DU-145 prostate, in the assay on COLO 205 colon and in the assay with TK-10 renal was over 100 µM in each case. Further, the TGI in the assay with SF-295 CNS and with SF-539 CNS was over 100 µM each time.

In the case of `COc1ccc(C2=C(c3ccc(OC)cc3)C(=O)N3CCCC3C2)cc1` (stereo not drawn), the GI50 in the assay with MCF7 breast was 12.8 µM; in the assay on OVCAR-3 ovarian, 11.7 µM; in the assay on SR leukemia, over 37.1 µM; with DU-145 prostate, 13.5 µM; with COLO 205 colon, 7.43 µM; in the assay on TK-10 renal it was 22.8 µM. Moreover, the GI50 in the assay with SF-295 CNS was 9.26 µM; in the assay with SF-539 CNS it was 7.95 µM. In addition, the TGI in the assay on MCF7 breast, in the assay on OVCAR-3 ovarian, with SR leukemia, in the assay on DU-145 prostate, with COLO 205 colon and in the assay with TK-10 renal was over 100 µM in each case. Further, the TGI was over 100 µM in the assay on SF-295 CNS and 77.1 µM in the assay with SF-539 CNS.

For the compound `CCc1ccc(/C=C/c2ccc(O)c3ncccc23)[n+](C)c1`, the GI50 is 7.99 µM in the assay on MCF7 breast; 0.671 µM with OVCAR-3 ovarian; 2.76 µM in the assay on SR leukemia; 4.96 µM in the assay on DU-145 prostate; 8.07 µM with COLO 205 colon; over 100 µM in the assay on TK-10 renal. Moreover, the results for the GI50 in the assay on SF-295 CNS and in the assay with SF-539 CNS were 1.88 µM and 20.4 µM, respectively. The TGI in the assay on MCF7 breast was over 90.7 µM; in the assay on OVCAR-3 ovarian, over 23.4 µM; with SR leukemia it was over 25.9 µM; in the assay with DU-145 prostate, over 100 µM; in the assay with COLO 205 colon it was over 89.8 µM; in the assay on TK-10 renal, over 100 µM. Also, the TGI in the assay on SF-295 CNS and with SF-539 CNS was over 100 µM in each case.

For `CN(C)C(=S)Sc1ccc([N+](=O)[O-])cc1[N+](=O)[O-]`, the GI50 was 0.777 µM in the assay on MCF7 breast; 0.99 µM in the assay on OVCAR-3 ovarian; 0.296 µM in the assay on SR leukemia; 2.59 µM with DU-145 prostate; 0.8 µM in the assay on COLO 205 colon; 2.29 µM with TK-10 renal. Also, the figures for the GI50 with SF-295 CNS and with SF-539 CNS were 14.5 µM and 3.8 µM, respectively. For the same compound, the TGI was 5.03 µM in the assay with MCF7 breast; 2.49 µM with OVCAR-3 ovarian; 16.8 µM in the assay on SR leukemia; 6.89 µM in the assay on DU-145 prostate; 3.02 µM in the assay on COLO 205 colon; 5.85 µM with TK-10 renal. Also, the TGI was found to be 29 µM in the assay with SF-295 CNS and 14.6 µM in the assay with SF-539 CNS.

`Nc1c(C(=O)c2ccccc2)cnn1-c1ccc(F)cc1`: the GI50 with MCF7 breast, in the assay with OVCAR-3 ovarian, in the assay with SR leukemia, in the assay on DU-145 prostate, in the assay with COLO 205 colon and in the assay on TK-10 renal was over 25 µM in each case. Besides, the GI50 in the assay with SF-295 CNS and in the assay on SF-539 CNS was over 25 µM throughout. Besides, the TGI in the assay on MCF7 breast, in the assay on OVCAR-3 ovarian, in the assay on SR leukemia, in the assay on DU-145 prostate, with COLO 205 colon and in the assay with TK-10 renal was over 25 µM each time. For the same compound, the TGI in the assay with SF-295 CNS and with SF-539 CNS was over 25 µM each time.

In the case of `COC(=O)c1ccc2c(c1)/C(=C\c1cc(Br)c(O)c(Br)c1)C(=O)N2`, the GI50 is 8.01 µM in the assay on MCF7 breast; 8.14 µM in the assay with OVCAR-3 ovarian; 8.11 µM in the assay with SR leukemia; 7.15 µM in the assay on DU-145 prostate; 6.8 µM in the assay on COLO 205 colon; 6.79 µM with TK-10 renal. The GI50 with SF-295 CNS is 5.1 µM; with SF-539 CNS, 5.85 µM. In addition, the TGI in the assay with MCF7 breast was over 25 µM; with OVCAR-3 ovarian, over 25 µM; with SR leukemia it was over 25 µM; in the assay on DU-145 prostate, over 25 µM; in the assay with COLO 205 colon, over 25 µM; in the assay on TK-10 renal it was over 23.3 µM. Also, the TGI in the assay on SF-295 CNS is over 24 µM; in the assay on SF-539 CNS, over 25 µM.

`CN(C)c1ccc(N=Nc2ccccn2)c(O)c1`: the GI50 in the assay with MCF7 breast is 0.271 µM; with OVCAR-3 ovarian, 0.3 µM; with SR leukemia, 0.123 µM; with DU-145 prostate, 0.481 µM; with COLO 205 colon, 0.345 µM; with TK-10 renal it was 0.177 µM. For the same compound, the GI50 in the assay with SF-295 CNS is 0.359 µM; with SF-539 CNS, 0.355 µM. The TGI with MCF7 breast was over 100 µM; with OVCAR-3 ovarian it was over 100 µM; with SR leukemia, over 100 µM; in the assay on DU-145 prostate, over 100 µM; in the assay with COLO 205 colon, over 34.8 µM; with TK-10 renal, 43.9 µM. The TGI in the assay with SF-295 CNS is over 100 µM; in the assay on SF-539 CNS, 8.44 µM.

Consider `CN(C)c1ncnc2c1ncn2CCn1cnc2c(N(C)C)ncnc21`, for which the TGI in the assay with MCF7 breast, with OVCAR-3 ovarian, in the assay on SR leukemia, in the assay on DU-145 prostate, in the assay on COLO 205 colon and with TK-10 renal was over 100 µM each time. In addition, the TGI in the assay on SF-295 CNS and with SF-539 CNS was over 100 µM in each case.

For the compound `Cc1cc2cc3c(=O)[nH]c(=O)[nH]c3nc2cc1C`, the TGI in the assay on MCF7 breast, in the assay on OVCAR-3 ovarian, in the assay with SR leukemia, in the assay with DU-145 prostate, with COLO 205 colon and with TK-10 renal was over 100 µM throughout. For the same compound, the TGI in the assay with SF-295 CNS and in the assay on SF-539 CNS was over 100 µM throughout.

Take `Cn1c(Nc2ccc(C(F)(F)F)cc2)nc2cc(Oc3ccnc(-c4ncc(C(F)(F)F)[nH]4)c3)ccc21`: the GI50 in the assay with MCF7 breast is 3.38 µM; in the assay with OVCAR-3 ovarian, 1.54 µM; with SR leukemia it was 0.0457 µM; in the assay on DU-145 prostate, 2.05 µM; in the assay with COLO 205 colon, 0.367 µM; in the assay on TK-10 renal it was 2.91 µM. Besides, the GI50 in the assay with SF-295 CNS was 0.402 µM; in the assay on SF-539 CNS, 0.232 µM. The TGI with MCF7 breast came out at 14.4 µM; with OVCAR-3 ovarian it was 7.54 µM; in the assay with SR leukemia it was 13.2 µM; with DU-145 prostate it was 17.3 µM; with COLO 205 colon, 10.6 µM; with TK-10 renal, 16.2 µM. Further, the TGI with SF-295 CNS was determined as 11.8 µM; in the assay on SF-539 CNS it was 13.7 µM.

Consider `C#Cc1nc(Nc2cc(C)[nH]n2)c2ccccc2n1`, for which the GI50 in the assay on MCF7 breast was 0.197 µM; in the assay on OVCAR-3 ovarian it was 0.242 µM; with SR leukemia, 0.226 µM; with DU-145 prostate it was 0.396 µM; in the assay with COLO 205 colon it was 0.279 µM; in the assay on TK-10 renal, 0.427 µM. For the same compound, the figures for the GI50 in the assay on SF-295 CNS and in the assay on SF-539 CNS were 0.609 µM and 0.189 µM, respectively. Further, the TGI was found to be 1.67 µM with MCF7 breast; 0.52 µM with OVCAR-3 ovarian; 0.79 µM with SR leukemia; 1.7 µM in the assay with DU-145 prostate; 0.674 µM with COLO 205 colon; 2.91 µM in the assay with TK-10 renal. Further, the TGI in the assay on SF-295 CNS amounted to 2.26 µM; with SF-539 CNS, 0.451 µM.

Turning to `O=c1[nH]c2ccc(O)cc2o1`, the TGI in the assay on MCF7 breast, in the assay on OVCAR-3 ovarian, with SR leukemia, in the assay with DU-145 prostate, in the assay with COLO 205 colon and in the assay on TK-10 renal was over 100 µM each time. In addition, the TGI with SF-295 CNS and with SF-539 CNS was over 100 µM each time.

Consider `Cc1ccc2c(C3C(C#N)=C(N)Oc4cc5ccccc5cc43)cc(=O)oc2c1` (stereo not drawn), for which the GI50 is 0.428 µM with MCF7 breast; 0.375 µM in the assay with OVCAR-3 ovarian; 0.525 µM in the assay with SR leukemia; 3.79 µM in the assay on DU-145 prostate; 2.88 µM in the assay with COLO 205 colon; 17.6 µM in the assay with TK-10 renal. The GI50 in the assay on SF-295 CNS is 0.533 µM; in the assay on SF-539 CNS, 0.873 µM. In addition, the TGI was over 100 µM in the assay on MCF7 breast; 10.7 µM with OVCAR-3 ovarian; over 100 µM with SR leukemia; over 100 µM in the assay on DU-145 prostate; 17.3 µM with COLO 205 colon; over 100 µM with TK-10 renal. Besides, the TGI was over 100 µM in the assay on SF-295 CNS and 7.6 µM in the assay with SF-539 CNS.
